Structures are written as SMILES. ≈ marks a conversion by molar mass, not a printed value.

This is an account of results in ChEMBL document CHEMBL4354794, “Potential Anticancer Agents Characterized from Selected Tropical Plants” (J Nat Prod, 2019).

Data set [1] has as its system HT-29. Put plainly: Antiproliferative activity against human HT-29 cells assessed as reduction in cell viability. Type of data set: functional, cell-based.
The next data set has as its system OVCAR-8. Put plainly: Antiproliferative activity against human OVCAR8 cells assessed as reduction in cell viability. Type of data set: functional, cell-based.
Data set [2] has as its system OVCAR-3. Put plainly: Antiproliferative activity against human OVCAR3 cells assessed as reduction in cell viability. Format: functional, cell-based.
For the next data set, the system named is P388. In words: Antiproliferative activity against mouse P388 cells assessed as reduction in cell viability. Type of data set: functional, cell-based. As to conditions: read-out: ED50 (the source's name).
The next data set deals with Col2. In words: Antiproliferative activity against human Col2 cells assessed as reduction in cell viability. Format: functional, cell-based.
A further data set has as its system A-431. In words: Antiproliferative activity against human A431 cells assessed as reduction in cell viability. Format: functional. Particulars: read-out: ED50 (the source's name).
Data set [3] deals with KB. In words: Antiproliferative activity against human KB/HeLa cells assessed as reduction in cell viability. Type of data set: functional, cell-based.
Data set [4] can be described thus: Antiproliferative activity against human BC1 cells assessed as reduction in cell viability. As to conditions: read-out: ED50 (the source's name). Type of data set: functional.
Data set [5] is described as follows: Antiproliferative activity against human U373 cells assessed as reduction in cell viability. Format: functional, U-373MG ATCC. Particulars: U373 MG, read-out: ED50 (the source's name).
The subject of another data set is KB-V1. Put plainly: Antiproliferative activity against human KBV1 cells assessed as reduction in cell viability. Type of data set: functional. Particulars: read-out: ED50 (the source's name).
A further data set concerns HT. Put plainly: Antiproliferative activity against human HT cells assessed as reduction in cell viability. Particulars: read-out: ED50 (the source's name). Type of data set: functional.
A further data set has as its system SK-HEP1. In words: Cytotoxicity against human SKHEP1 cells assessed as reduction in viability. Format: functional, cell-based.
Another data set relates to WRL68. Put plainly: Cytotoxicity against human WRL68 cells assessed as reduction in viability. Type of data set: cell-based.
Data set [6] in a line: Toxicity in po dosed mouse. Format: organism-based. Particulars: in vivo.
In the next data set the test system is MDA-MB-231. In words: Antitumour activity against human MDA-MB-231 cells xenografted in Nu/Nu mouse at 10 mg/kg, iv for 6 times at 2 days interval. Format: functional. Background: A xenograft is tissue or cells of one species grown in another, often human tumour cells in immunodeficient mice.
A further data set deals with HL-60. Put plainly: Antiproliferative activity against human HL60 cells assessed as reduction in cell viability after 3 days by trypan blue dye based hemocytometer counting method. Type of data set: functional. As to conditions: HL-60, 72 h.
In another data set the test system is HT-3. Put plainly: Antiproliferative activity against human HT3 cells assessed as reduction in cell viability after 6 days by MTT assay. Particulars: HT-3, 144 h. Format: functional, cell-based. On the technique in general: Formazan colour is commonly taken as a measure of viable cells.
Another data set relates to HeLa. In words: Antiproliferative activity against human HeLa cells assessed as reduction in cell viability. Format: functional, cell-based.
In another data set the test system is HEp-2. In words: Antiproliferative activity against human Hep2 cells by MTT assay. Format: functional, cell-based.
The subject of data set [7] is KB. Put plainly: Antiproliferative activity against human KB cells assessed as reduction in cell viability. Format: functional, cell-based.
The test system of another data set is A549. In words: Antiproliferative activity against human A549 cells assessed as reduction in cell viability after 72 hrs by MTT assay. Type of data set: functional, cell-based. As to conditions: A549, 72 h.
In another data set the test system is DU-145. In words: Antiproliferative activity against human DU145 cells assessed as reduction in viability after 48 hrs by MTTS assay. Type of data set: functional, cell-based. Particulars: DU-145, 48 h.
Data set [8] in a line: Inhibition of chymotrypsin-like proteasome (unknown origin) using Suc-LLVY-AMC as substrate by fluorescence based assay. On the set-up: species or system Homo sapiens.
In data set [9] the test system is HT-29. Put plainly: Antiproliferative activity against human HT-29 cells assessed as reduction in cell viability after 3 days by SRB assay. Particulars: HT-29, 72 h. Type of data set: functional, cell-based. (In general: Sulforhodamine B stains cellular protein and so reports cell mass.)
The nature of data set [10]: Antiproliferative activity against mouse Sch10545 cells incubated for 72 hrs by resazurin dye based fluorescence assay. Format: functional, cell-based.
The nature of data set [11]: Antiproliferative activity against human Ben-Men-1 cells incubated for 72 hrs by resazurin dye based fluorescence assay. Type of data set: functional, cell-based.
In another data set the test system is SK-OV-3. In words: Antiproliferative activity against human SKOV3 cells assessed as reduction in cell viability after 48 hrs by CCK8 assay. As to conditions: SK-OV-3, 48 h. Type of data set: functional, cell-based.
In data set [12] the test system is OVCAR-3. In words: Antiproliferative activity against human OVCAR3 cells assessed as reduction in cell viability after 48 hrs by CCK8 assay. Format: functional, cell-based. Particulars: OVCAR-3, 48 h.
The target of data set [13] is Tyrosine-protein phosphatase non-receptor type 1 (Homo sapiens, UniProt P18031). In words: Inhibition of recombinant human PTP1B (1 to 322 residues) expressed in Escherichia coli assessed as reduction in p-nitrophenol formation using p-nitrophenyl phosphate as substrate incubated for 30 mins by spectrophotometric method.
Sequence of Tyrosine-protein phosphatase non-receptor type 1 (P18031 whole entry, the tested form may be a part): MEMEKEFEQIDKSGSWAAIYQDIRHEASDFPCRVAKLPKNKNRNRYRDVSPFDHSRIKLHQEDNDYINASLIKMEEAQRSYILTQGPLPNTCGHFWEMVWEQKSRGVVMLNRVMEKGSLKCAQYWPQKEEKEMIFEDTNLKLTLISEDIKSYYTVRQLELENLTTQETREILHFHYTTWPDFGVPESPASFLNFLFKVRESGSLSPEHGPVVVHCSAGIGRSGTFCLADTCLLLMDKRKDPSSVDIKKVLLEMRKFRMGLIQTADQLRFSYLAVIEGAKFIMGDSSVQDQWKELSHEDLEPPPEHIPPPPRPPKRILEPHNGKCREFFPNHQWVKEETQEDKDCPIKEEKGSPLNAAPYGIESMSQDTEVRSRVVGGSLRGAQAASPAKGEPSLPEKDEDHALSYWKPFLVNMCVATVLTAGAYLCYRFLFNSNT

A word on the IC50: it is the concentration at which inhibition is half-maximal. Turning to `COc1cc2c(O[C@@H]3O[C@H](CO)[C@@H]4OC(C)(C)O[C@@H]4[C@H]3O)c3c(c(-c4ccc5c(c4)OCO5)c2cc1OC)C(=O)OC3`, the values for the IC50 in the data set with HT-29 [1], in the data set on OVCAR-8 and with OVCAR-3 [2] were 0.043 µM, 0.004 µM and 0.0042 µM, respectively.
As to `COc1cc(-c2oc3cc(OC)c(OC)c(O)c3c(=O)c2OC)ccc1O` [CHRYSOSPLENOL B], the concentration for half-maximal inhibition (IC50) in the data set with HT-29 [1] was more than 10 µM; in the data set with Col2, more than 10 µg/mL. The EC50 is 0.33 to 1.56 µM with P388; 0.33 to 1.56 µM in the data set on A-431; 0.33 to 1.56 µM in the data set with KB [3] (read-out: ED50 (the source's name)); 0.33 to 1.56 µM in [4]; 0.33 to 1.56 µM in data set [5]; 2.14 µM in the data set with KB-V1. Also, the EC50 in the data set on HT was 0.33 to 1.56 µM.
In the case of `COc1c(O)cc2oc3cc(O)c(CC=C(C)C)c(O)c3c(=O)c2c1CC=C(C)C` [MANGOSTIN], the IC50 with SK-HEP1 is 19.6 µM; with WRL68, 158 µM.
One may read the LD50 as the dose at which mortality reaches 50%. Higher therefore signals lower toxicity. In data set [6], `C[C@H]1O[C@@H](O[C@H]2[C@@H](O)C[C@H](O[C@H]3[C@@H](O)C[C@H](O[C@H]4CC[C@@]5(C)[C@H](CC[C@@H]6[C@@H]5CC[C@]5(C)[C@@H](C7=CC(=O)OC7)CC[C@]65O)C4)O[C@@H]3C)O[C@@H]2C)C[C@H](O)[C@@H]1O` [DIGITOXIN] gave an LD50 of 10 to 80 mg/kg.
Regarding `CC(C)=CCC[C@]1(C)C=Cc2c(O)c3c(c(CC=C(C)C)c2O1)O[C@]12C(=C[C@@H]4C[C@H]1C(C)(C)O[C@@]2(C/C=C(/C)C(=O)O)C4=O)C3=O` [GAMBOGIC ACID], the “fold change (FC)” value with MDA-MB-231 is 1.31. In addition, the half-maximal inhibitory concentration (IC50) in the data set on HL-60 worked out at 0.17 µM.
Turning to `COc1cc2c(OC)c3c(c(-c4ccc5c(c4)OCO5)c2cc1OC)C(=O)OC3` [JUSTICIDIN A], the IC50 in the data set with HT-3 was found to be 0.0018 µg/mL (≈ 0.00456 µM).
Still for that read-out and setting: as for `COc1ccc(-c2c3c(c(O)c4cc5c(cc24)OCO5)COC3=O)cc1OC`, the figure is more than 10 µg/mL.
Take `O=c1cc(-c2ccc(O)c(-c3c(O)cc(O)c4c(=O)cc(-c5ccc(O)cc5)oc34)c2)oc2cc(O)cc(O)c12` [AMENTOFLAVONE]: the IC50 in the data set with HeLa is more than 10 µM.
Take `CC[C@H](CC[C@@H](C)[C@H]1CC[C@H]2[C@@H]3CC=C4C[C@@H](O)CC[C@]4(C)[C@H]3CC[C@]12C)C(C)C` [BETA-SITOSTEROL]: the results for the IC50 in the data set on HEp-2, in the data set with KB [3] and in the data set on KB [7] were 11.4 µM, more than 242 µM and more than 10 µg/mL, respectively.
In the case of `COC[C@H]1O[C@@H](Oc2c3c(c(-c4ccc5c(c4)OCO5)c4cc(OC)c(OC)cc24)C(=O)OC3)[C@H](OC)[C@@H](OC)[C@@H]1OC`, the IC50 with A549 is 0.05 µM.
Regarding `C[C@]12CC[C@H]3[C@@H](CC[C@H]4C[C@@H](O)[C@H](O)C[C@@]43C=O)[C@@]1(O)CC[C@@H]2C1=CC(=O)OC1` [CALOTROPAGENIN], the IC50 with DU-145 worked out at 0.48 µM.
Turning to `O=C1c2c(O)cc(O)cc2O[C@@H](c2ccc(O)cc2)[C@@H]1c1c(O)cc(O)c2c(=O)cc(-c3ccc(O)c(O)c3)oc12`, the IC50 in data set [8] is 1.3 µM; in the data set on HT-29 [9], more than 10 µM.
For `COC[C@H]1O[C@@H](Oc2c3c(c(-c4ccc5c(c4)OCO5)c4cc(OC)c(OC)cc24)C(=O)OC3)[C@H](OC)[C@@H](OC)[C@H]1OC`, the half-inhibitory concentration (IC50) in the data set on A549 stood at 0.01 µM.
For the compound `C=C(C)C(=O)O[C@H]1C[C@@]2(C)OC(=CC2=O)/C(CO)=C\[C@H]2OC(=O)C(=C)[C@H]12` [GOIAZENSOLIDE], the IC50 in data set [10] and in data set [11] was 1 µM each time.
`O=c1c2cc(O)ccc2oc2cccc(O)c12`: the IC50 with SK-OV-3 and with OVCAR-3 [12] was more than 10 µM each time.
In the case of `CC(C)=CC[C@]12OC(C)(C)[C@H]3C[C@H](C=C4C(=O)c5c(O)cc(O)cc5O[C@@]431)C2=O` [COCHINCHINOXANTHONE], the IC50 in [13] turned out to be 6.6 µM.
Regarding `C[C@@H]1C[C@H](O)[C@]2(O)O[C@@H]3C[C@@]4(C=O)[C@@H](CC[C@@H]5[C@@H]4CC[C@]4(C)[C@@H](C6=CC(=O)OC6)CC[C@]54O)C[C@H]3O[C@@H]2O1` [CALOTROPIN], the IC50 in the data set with DU-145 was 0.03 µM.
